Series [1] can be described thus: tolerability of Compound A given orally. As to conditions: oral, initial dose 1.5 mg twice a day, stepped up to 3 mg twice daily in week 2. It counts as in vivo. As to the method:
(§1) Higher dosages are possible, for example 4.5 mg twice daily and even 6 mg twice daily. Tolerability is seen to be even better for the transdermal device, wherein 24 mg were absorbed in 24 hours.

Series [2] in a line: degradation testing of Compound A and of the prior-art transdermal composition. Format: physicochemical. The conditions noted are these: particularly in the presence of oxygen; prior-art composition in occlusive polymer matrix and air-tight packaging.
A short description of series [3]: tolerability and absorption of Compound A from transdermal patches. Format: in vivo. As to the method: The transdermal devices of the invention in general have, for example an effective contact area of pharmaceutical composition on the skin of from about 1 to about 80 square centimeters, preferably about 10 square centimeters, and are intended to be applied at intervals of about once every 1 to 7 days, preferably 1-3 days. […] Compound A may, for example be administered at a dose of 8 mg in a patch of ca. 10 cm^2, once every day. The patch may be applied, for example on the abdomen, thigh, behind an ear, or on a shoulder or upper arm.
as §1

Turning to `CCN(C)C(=O)Oc1cccc([C@H](C)N(C)C)c1` [Compound A], the tolerability result in series [1] is reported as “well tolerated”; in series [3] (transdermal, 36 mg free base in up to 80 cm^2 of patches), “well tolerated”. Also, the susceptibility to degradation entry in series [2] is listed as “susceptible to degradation”. Further, in series [3] (transdermal device, 24 mg absorbed in 24 hours), the “tolerability of transdermal device compared with oral” value is listed as “even better”. Also, the amount absorbed in series [3] (transdermal device, in 24 hours) turned out to be 24 mg; in series [3] (transdermal, patches up to 80 cm^2 containing 36 mg compound A), 12 mg.

For the origin of these results see US6335031B1, “TTS containing an antioxidant” (priority 1998, dated 2002).
